Source: PMC1968618, “Acetylsalicylic acid (ASA) protects the prostaglandin-cAMP-system of human hypernephroma cells against irradiation-induced alterations” (British Journal of Cancer, 1993)
Where “and” joins values, the source holds several entries; their conditions need not be identical. Equal values may be shown once. Read-outs that look alike come from different tables or passages of the source. One block for each compound: values may come before it.

Legend:
[1] = test system: human hypernephroma cells; assay: Cellular viability (phase-contrast microscopy and Trypan Blue exclusion); format: cell-based; details: ASA incubation for 24 h
[2] = test system: PG biosynthesis of human hypernephroma cells; assay: Conversion of exogenously added 14C-AA to its metabolites (radiothinlayer chromatography); format: cell-based; details: for 14C-AA conversion to 12-HETE, Table IV / 14C-AA conversion to PGD2, Table IV / 14C-AA conversion to PGE2, Table IV / 14C-AA conversion to PGF2alpha, Table IV / 14C-AA conversion to TXB2, Table IV / AA (%) remaining, Table IV: individual cell lines
[3] = test system: PG binding sites on human hypernephroma cells; assay: Time course of specific 3H-PG binding (association, dissociation); details: 3H-iloprost, 3H-PGE1 each 84 nM, 3H-PGE2 45 nM; stable for at least 80 min
[4] = test system: PGE1-binding sites (3H-PGE1-receptors) on human hypernephroma cells; assay: Saturation binding of 3H-PGE1 to cultured hypernephroma cells (Scatchard analysis); details: for Bmax, 3H-PGE1 binding, Table II: individual cell lines; for Bmax (binding capacity), 3H-PGE1 binding / Kd: mean of cell lines; for Kd: read-out: Kd (dissociation constant), 3H-PGE1 binding
[5] = test system: PGE2-binding sites (3H-PGE2-receptors) on human hypernephroma cells; assay: Saturation binding of 3H-PGE2 to cultured hypernephroma cells (Scatchard analysis); details: for Bmax, 3H-PGE2 binding, Table III: individual cell lines; for Bmax (binding capacity), 3H-PGE2 binding / Kd: mean of cell lines; for Kd: read-out: Kd (dissociation constant), 3H-PGE2 binding
[6] = target: T1, PGI2-binding sites (3H-iloprost receptors) on human hypernephroma cells (Homo sapiens, UniProt P43119); assay: Saturation binding of 3H-iloprost to cultured hypernephroma cells (Scatchard analysis); details: for Bmax (binding capacity), 3H-iloprost binding: mean of cell lines; for Bmax, 3H-iloprost binding, Table I: individual cell lines
T1 construct: endogenous in cells; host or cells: primary cultures of human renal cell carcinoma (hypernephroma) cells, one line per patient

[7] = ASA-treated group (group 2), patients 1,3,4,6,8,9,11 in order
[8] = ASA-treated group irradiated (group 4), patients 3,4,6,9,11 in order
[9] = ASA-treated group (group 2), ASA 0.5 mg 10-6 cells for 24 h
[10] = ASA-treated group irradiated (group 4)
[11] = ASA-treated group irradiated (group 4), listed as 3H-PGE1
[12] = control group (group 1), no ASA, no irradiation
[13] = control group (group 1), no ASA, no irradiation, listed as 3H-PGE1
[14] = control group irradiated (group 3), 60Co 1.0 Gy min-1 over 10 min, assay about 2 h after

T1 sequence (P43119 whole entry): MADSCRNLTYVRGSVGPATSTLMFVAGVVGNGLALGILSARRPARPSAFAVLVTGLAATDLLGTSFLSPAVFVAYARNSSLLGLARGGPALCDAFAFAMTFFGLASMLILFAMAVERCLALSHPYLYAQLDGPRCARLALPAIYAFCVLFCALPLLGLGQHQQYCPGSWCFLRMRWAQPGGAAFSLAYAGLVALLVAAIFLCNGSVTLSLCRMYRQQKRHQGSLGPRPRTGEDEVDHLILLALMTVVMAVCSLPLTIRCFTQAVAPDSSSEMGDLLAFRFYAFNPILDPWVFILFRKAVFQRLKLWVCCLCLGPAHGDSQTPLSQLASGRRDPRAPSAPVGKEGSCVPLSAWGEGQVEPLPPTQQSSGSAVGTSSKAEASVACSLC

Compound: CC(=O)Oc1ccccc1C(=O)O [ASA, acetylsalicylic acid]
cellular viability [1]: unchanged | 14C-AA conversion to 12-HETE, Table IV [2, 7]: 6.9% and 4.2% and 7.3% and 5.5% and 5.3% and 4.9% and 8.8% | 14C-AA conversion to PGD2, Table IV [2, 7]: 1.3% and 0.9% and 0.2% and 0.5% and 0.4% and 0.6% and 0.8% | 14C-AA conversion to PGE2, Table IV [2, 7]: 1.8% (2×) and 1.1% and 2.2% and 0.7% and 1.5% and 1.3% | 14C-AA conversion to PGF2alpha, Table IV [2, 7]: 1.7% and 0.7% and 0.8% and 0.2% and 0.3% (2×) and 0.5% | 14C-AA conversion to TXB2, Table IV [2, 7]: 1.2% and 0.8% and 1.7% and 1.3% (2×) and 2.3% and 1.5% | AA (%) remaining, Table IV [2, 7]: 66.5% and 78.2% and 72.9% and 78.5% (2×) and 82.8% and 81.0% | 14C-AA conversion to PGF2alpha ([2]; ASA-treated group (group 2), mean (control group […])): 0.6% | 14C-AA conversion to 12-HETE ([2]; ASA-treated group (group 2), mean (control group 3.7)): 6.1% | 14C-AA conversion to TXB2 ([2]; ASA-treated group (group 2), mean (control group 8.0)): 1.4% | 14C-AA conversion to 12-HETE, Table IV [2, 8]: 4.9% and 5.1% (2×) and 4.8% (2×) | 14C-AA conversion to PGD2, Table IV [2, 8]: 0.3% and 0.9% and 0.8% and 0.5% and 0.4% | 14C-AA conversion to PGE2, Table IV [2, 8]: 0.8% and 1.6% and 1.9% and 1.1% and 1.8% | 14C-AA conversion to PGF2alpha, Table IV [2, 8]: 0.5% and 0.9% and 0.2% and 0.8% and 0.4% | 14C-AA conversion to TXB2, Table IV [2, 8]: 1.3% and 1.2% and 1.1% and 1.5% and 0.6% | AA (%) remaining, Table IV [2, 8]: 82.9% and 74.3% and 81.2% and 73.7% and 79.4% | 14C-AA conversion to PGF2alpha ([2]; ASA-treated group irradiated (group 4), mean (control irradiated 2.7)): 0.6% | 14C-AA conversion to PGD2 ([2]; ASA-treated group irradiated (group 4), mean (control irradiated 3.0)): 0.6% | 14C-AA conversion to 12-HETE ([2]; ASA-treated group irradiated (group 4), mean (control irradiated 4.1)): 4.9% | 14C-AA conversion to TXB2 ([2]; ASA-treated group irradiated (group 4), mean (control irradiated 7.4)): 1.1% | 14C-AA conversion to PGE2 ([2]; ASA-treated group irradiated (group 4), mean (control irradiated 9.0)): 1.4%

Compound: CCCCC[C@H](O)/C=C/[C@H]1[C@H](O)CC(=O)[C@@H]1CCCCCCC(=O)O [PGE1]
time to reach binding equilibrium [3]: ≤ 20 min | Bmax, 3H-PGE1 binding, Table II ([4]; ASA (group 2), patients 1,3,4,5,6,7,8,9,10,11 in order, listed as 3H-PGE1): 811 fmol mg-1 protein and 923 fmol mg-1 protein and 1076 fmol mg-1 protein and 1019 fmol mg-1 protein and 1367 fmol mg-1 protein and 897 fmol mg-1 protein and 1773 fmol mg-1 protein and 736 fmol mg-1 protein and 1064 fmol mg-1 protein and 1171 fmol mg-1 protein | Bmax (binding capacity), 3H-PGE1 binding [4, 9]: 1084 +/- 303 fmol mg-1 protein | Bmax (binding capacity), 3H-PGE1 binding ([4]; ASA-treated group (group 2), ASA 0.5 mg 10-6 cells for 24 h, listed as 3H-PGE1): 1084 fmol mg-1 protein | Kd [4, 9]: 2.8 ± 1.3 nM | Bmax (binding capacity), 3H-PGE1 binding [4, 10]: 699 +/- 240 fmol mg-1 protein | Bmax (binding capacity), 3H-PGE1 binding [4, 11]: 699 fmol mg-1 protein | Kd [4, 11]: 3 nM | Bmax, 3H-PGE1 binding, Table II ([4]; control (group 1), patients 1,3,4,5,6,7,8,9,10,11 in order, listed as 3H-PGE1): 781 fmol mg-1 protein and 372 fmol mg-1 protein and 978 fmol mg-1 protein and 911 fmol mg-1 protein and 694 fmol mg-1 protein and 893 fmol mg-1 protein and 1041 fmol mg-1 protein and 643 fmol mg-1 protein and 555 fmol mg-1 protein and 685 fmol mg-1 protein | Bmax (binding capacity), 3H-PGE1 binding [4, 12]: 755 +/- 206 fmol mg-1 protein | Bmax (binding capacity), 3H-PGE1 binding [4, 13]: 755 fmol mg-1 protein | Kd [4, 13]: ~4 nM | Kd [4, 12]: 3.7 ± 2.7 nM | Bmax (binding capacity), 3H-PGE1 binding [4, 14]: 266 +/- 153 fmol mg-1 protein | Bmax (binding capacity), 3H-PGE1 binding ([4]; control group irradiated (group 3), 60Co 1.0 Gy min-1 over 10 min, assay about 2 h after, listed as 3H-PGE1): 266 fmol mg-1 protein | Kd [4, 14]: 5 ± 5 nM | Bmax, 3H-PGE1 binding, Table II ([4]; irradiation, ASA (group 4), patients 3,6,7,9,10,11 in order, listed as 3H-PGE1): 679 fmol mg-1 protein and 867 fmol mg-1 protein and 615 fmol mg-1 protein and 268 fmol mg-1 protein and 884 fmol mg-1 protein and 879 fmol mg-1 protein | Bmax, 3H-PGE1 binding, Table II ([4]; irradiation, control (group 3), patients 3,6,7,9,10,11 in order, listed as 3H-PGE1): 267 fmol mg-1 protein and 504 fmol mg-1 protein and 301 fmol mg-1 protein and 137 fmol mg-1 protein and 319 fmol mg-1 protein and 68 fmol mg-1 protein

Compound: CCCCC[C@H](O)/C=C/[C@H]1[C@H](O)CC(=O)[C@@H]1C/C=C\CCCC(=O)O [PGE2]
time to reach binding equilibrium [3]: ≤ 30 min | Bmax, 3H-PGE2 binding, Table III ([5]; ASA (group 2), patients 1,3,4,5,6,8,9,10,11 in order, listed as 3H-PGE2): 650 fmol mg-1 protein and 162 fmol mg-1 protein and 858 fmol mg-1 protein and 780 fmol mg-1 protein and 1104 fmol mg-1 protein and 986 fmol mg-1 protein and 666 fmol mg-1 protein and 324 fmol mg-1 protein and 441 fmol mg-1 protein | Bmax (binding capacity), 3H-PGE2 binding [5, 9]: 663 +/- 309 fmol mg-1 protein | Bmax (binding capacity), 3H-PGE2 binding ([5]; ASA-treated group (group 2), ASA 0.5 mg 10-6 cells for 24 h, listed as 3H-PGE2): 663 fmol mg-1 protein | Kd [5, 9]: 2.2 ± 1.5 nM | Bmax (binding capacity), 3H-PGE2 binding [5, 10]: 287 fmol mg-1 protein | Kd [5, 10]: 3.5 nM | Bmax, 3H-PGE2 binding, Table III ([5]; control (group 1), patients 1,3,4,5,6,8,9,10,11 in order, listed as 3H-PGE2): 563 fmol mg-1 protein and 143 fmol mg-1 protein and 478 fmol mg-1 protein and 650 fmol mg-1 protein and 930 fmol mg-1 protein and 438 fmol mg-1 protein and 534 fmol mg-1 protein and 313 fmol mg-1 protein and 398 fmol mg-1 protein | Bmax (binding capacity), 3H-PGE2 binding [5, 12]: 494 +/- 221 fmol mg-1 protein | Bmax (binding capacity), 3H-PGE2 binding ([5]; control group (group 1), no ASA, no irradiation, listed as 3H-PGE2): 494 fmol mg-1 protein | Kd [5, 12]: 4.2 ± 2.5 nM | Bmax (binding capacity), 3H-PGE2 binding [5, 14]: 148 +/- 66 fmol mg-1 protein | Bmax (binding capacity), 3H-PGE2 binding ([5]; control group irradiated (group 3), 60Co 1.0 Gy min-1 over 10 min, assay about 2 h after, listed as 3H-PGE2): 148 fmol mg-1 protein | Kd [5, 14]: 4.7 ± 3.6 nM | Bmax, 3H-PGE2 binding, Table III ([5]; irradiation, ASA (group 4), patients 3,6,8,9,10,11 in order, listed as 3H-PGE2): 181 fmol mg-1 protein and 336 fmol mg-1 protein and 338 fmol mg-1 protein and 466 fmol mg-1 protein and 232 fmol mg-1 protein and 170 fmol mg-1 protein | Bmax, 3H-PGE2 binding, Table III ([5]; irradiation, control (group 3), patients 3,6,8,9,10,11 in order, listed as 3H-PGE2): 63 fmol mg-1 protein and 209 fmol mg-1 protein and 218 fmol mg-1 protein and 112 fmol mg-1 protein and 96 fmol mg-1 protein and 189 fmol mg-1 protein

Bmax (binding capacity), 3H-iloprost binding [6, 12]: 693 +/- 164 fmol mg-1 protein | Bmax (binding capacity), 3H-iloprost binding [6, 14]: 325 +/- 194 fmol mg-1 protein
Compound: CCCCC[C@H](O)/C=C/[C@@H]1[C@H]2C/C(=C/CCCC(=O)O)O[C@H]2C[C@H]1O [PGI2]

Bmax (binding capacity), 3H-iloprost binding [6, 9]: 1021 fmol mg-1 protein | Bmax (binding capacity), 3H-iloprost binding [6, 10]: 766 +/- 452 fmol mg-1 protein | Bmax (binding capacity), 3H-iloprost binding ([6]; ASA-treated group irradiated (group 4), listed as 3H-iloprost): 766 fmol mg-1 protein | Bmax (binding capacity), 3H-iloprost binding [6, 12]: 693 fmol mg-1 protein | Bmax (binding capacity), 3H-iloprost binding [6, 14]: 325 fmol mg-1 protein
Compound: CC#CCC(C)[C@H](O)/C=C/[C@@H]1[C@H]2C/C(=C/CCCC(=O)O)C[C@H]2C[C@H]1O (stereo partly shown) [iloprost]
time to reach binding equilibrium [3]: ≤ 20 min | Bmax, 3H-iloprost binding, Table I ([6]; ASA (group 2), patients 1,2,3,4,5,6,7,8,9,10,11 in order, listed as 3H-iloprost): 813 fmol mg-1 protein and 855 fmol mg-1 protein and 987 fmol mg-1 protein and 960 fmol mg-1 protein and 916 fmol mg-1 protein and 1047 fmol mg-1 protein and 2024 fmol mg-1 protein and 1301 fmol mg-1 protein and 442 fmol mg-1 protein and 1023 fmol mg-1 protein and 861 fmol mg-1 protein | Bmax, 3H-iloprost binding, Table I ([6]; control (group 1), patients 1,2,3,4,5,6,7,8,9,10,11 in order, listed as 3H-iloprost): 741 fmol mg-1 protein and 635 fmol mg-1 protein and 876 fmol mg-1 protein and 732 fmol mg-1 protein and 808 fmol mg-1 protein and 806 fmol mg-1 protein and 649 fmol mg-1 protein and 407 fmol mg-1 protein and 382 fmol mg-1 protein and 829 fmol mg-1 protein and 756 fmol mg-1 protein | Bmax, 3H-iloprost binding, Table I ([6]; irradiation, ASA (group 4), patients 3,4,6,7,9,10,11 in order, listed as 3H-iloprost): 489 fmol mg-1 protein and 354 fmol mg-1 protein and 867 fmol mg-1 protein and 1551 fmol mg-1 protein and 364 fmol mg-1 protein and 1162 fmol mg-1 protein and 576 fmol mg-1 protein | Bmax, 3H-iloprost binding, Table I ([6]; irradiation, control (group 3), patients 3,4,6,7,9,10,11 in order, listed as 3H-iloprost): 332 fmol mg-1 protein and 287 fmol mg-1 protein and 432 fmol mg-1 protein and 699 fmol mg-1 protein and 204 fmol mg-1 protein and 203 fmol mg-1 protein and 118 fmol mg-1 protein
